# Results taken from US6664231B1, “Anti-fungal peptides” (priority 1993, dated 2003).
# Read-outs that look alike come from different tables or passages of the source.
# Key:
# [1] = test system: Aspergillus ATCC 13073; assay: microbe, parasite or virus in culture; format: cell-based
# Method: (§1) The anti-fungal activity of Domain III derived peptides was evaluated against a variety of fungal species, including species of Candida. Cryptococcus, Fusarium, Trichophyton, and Aspergillus, by an additional assay protocol utilizing Alamar Blue. Alamar Blue is an indicator dye formulated to measure quantitatively the proliferation of a variety of human or animal cells, bacteria, or fungi. It consists of an oxidation-reduction (REDOX) indicator that yields a colorimetric change in response to metabolic activity. For these experiments, species of Candida and Cryptococcus were grown in Sabouraud's dextrose broth (SDB) overnight. Strains of filamentous fungi (Aspergilius, Fusanum, Trichophyton) were obtained by irrigation of a confluent culture from a petri dish. Cells were washed and adjusted to a concentration of 5.0×10^3/mL in fresh SDB. […] Controls included amphotericin B, fluconazole, ketoconazole and griseofulvin. Antifungal drugs were also diluted in the same manner. Assays were performed in 96-well microuiter plates. […] The wells to be plated were determined by OD590 readings. The lowest concentration of peptide which maintained the blue color (or OD reading) of the blank was chosen along with the next two higher concentrations. Plates were allowed to grow for 18-48 hours depending on the rate of growth of each fungus. Minimal fungicidal activity (MFC) was determined as a 99.9% killing of the starting inoculum.
# [2] = test system: Aspergillus niger ATCC 16404; assay: microbe, parasite or virus in culture; format: cell-based
# Method: as §1
# [3] = test system: Candida albicans (SLU-1 and ATCC strains); assay: microbe, parasite or virus in culture; format: cell-based
# Method: as §1
# [4] = test system: Candida glabrata ATCC 2001; assay: microbe, parasite or virus in culture; format: cell-based
# Method: as §1
# [5] = test system: Candida parapsilosis ATCC 22019; assay: microbe, parasite or virus in culture; format: cell-based
# Method: as §1
# [6] = test system: Cryptococcus neoformans ATCC 13690; assay: microbe, parasite or virus in culture; format: cell-based
# Method: as §1
# [7] = test system: Fusarium solani ATCC 36031; assay: microbe, parasite or virus in culture; format: cell-based
# Method: as §1
# [8] = test system: Crytococcus Neoformans 13690; format: cell-based, Cryptococcus neoformans
# Method: In additional experiments, a fluorescence-activated cell sorter (FACS) based assay was developed to test the fungicidal activity of the peptides. […] Difco) agar. Several colonies were picked from the agar plate and inoculated into 5 mL of Sabouraud's Dextrose media in a sterile 10 mL polypropylene tube. The fungal cultures were incubated for about 18 hours at 30° C. […] The culture were centrifuged at 3000 rpm for 5 minutes (Sorvall RT 6000B). After centrifugation, the supernatant was decanted leaving the fungal pellets in the centrifuge tubes. The pellets were resuspended in 15 mL of SDB. Both suspensions were combined into one tube and mixed to generate a stock culture. […] After determining the concentration of the stock, appropriate dilutions were made with Sabouraud's Dextrose media to obtain 100 mL of 1×10^6 cell/mL. […] After the 1 hour incubation, all the tubes were centrifuged at 3000 rpm for 5 minutes. […] Louis, Mo.) in Dulbecco's PBS (DPBS, GIBCO, Grand Island, N.Y.) except the autofluorescence control, which was resuspended in DPBS alone. […] The settings were adjusted appropriately to the following approximate parameters: Cells were analyzed (10,000 cells/tube) and their respective fluorescence determined. […] The population of dead (i.e., propidium iodide stained) fungal cells was determined by a fluorescence threshold between the negative control and positive control.
# [9] = test system: endotoxin (E. coli O111:B4); assay: Mouse experimental endotoxemia model; format: in vivo; details: endotoxin 20 mg/kg, 7 days
# Method: Domain III derived peptides are also tested for LPS neutralizing efficacy in an in vivo mouse experimental endotoxemia model. […] This was followed by a second intravenous injection of the peptide to be tested. Injections of saline were used in negative control mice. […] The efficacy of the peptides was measured by a decrease in endotoxemia-associated mortality in peptide-injected mice as compared with control mice. […] No animals survived in the saline control group.
# [10] = format: physicochemical; details: 37° C., at 50 days, acetate buffered saline
# Method: The lyophilized peptide was dissolved to a concentration of 1 mg/mL in three different buffers. The three formulation buffers used were (a) 10 mM solution acetate, 150 mM sodium chloride pH 4, (b) 10 mM sodium acetate, 150 mM sodium chloride pH 5 and (c) 10 mM sodium acetate, 150 mM sodium chloride pH 6. The formulated peptide samples were incubated at 4° C. and 37C. At each time point, samples were withdrawn from each vial and assayed by C18 reverse phase BPLC, absorbance at 280 nm, and SDS-PAGE. The study was conducted for 50 days.
# A 0.46×25 cm Vydac C18 column (cat no. 218TP54) was used on a Shimadzu HPLC system. The column was run in binary gradient mobile phases: A=Water+0.05% TFA, B=acetonitrile+0.05% TFA. […]
# Samples were analyzed by SDS polyacrylamide gel electrophoresis, run on Novex 10-20% tricine precast gels (Novex, La Jolla, Calif., EC6625). […] In addition, samples were analyzed photometrically. For this, samples withdrawn at each time point were diluted 6-fold with Millipore water and absorbance was measured at 280 nm and scanning from 210 nm to 340 nm using a Shimadzu UV 160 spectrophotometer. AU samples were filtered prior to absorbance measurement(s).
# XMP.284 was soluble in water and unbuffered saline. […] There was very little product loss, as measured by absorbance at 280 nm, in 0.15 M saline buffered with 10 mM acetate at pH 4, 5 or 6. […]
compound,measurement,setting,value
"C[C@@H]1[C@H](O)[C@@H](C)/C=C/C=C/C=C/C=C/C=C/C=C/C=C/[C@H](O[C@@H]2O[C@H](C)[C@@H](O)[C@H](N)[C@@H]2O)C[C@@H]2O[C@](O)(C[C@@H](O)C[C@@H](O)[C@H](O)CC[C@@H](O)C[C@@H](O)CC(=O)O[C@H]1C)C[C@H](O)[C@H]2C(=O)O [Amphotericin B, amphotericin B, reference compound]","Minimum Fungicidal Concentration, Aspergillus ATCC 13073",[1],12.50 µg/mL
same,"Minimum Fungicidal Concentration, Aspergillus niger ATCC 16404",[2],5.00 µg/mL
same,"Minimum Fungicidal Concentration, Candida albicans ATCC 10231",[3]; strain ATCC 10231,0.63 µg/mL
same,"Minimum Fungicidal Concentration, Candida albicans ATCC 18840",[3]; strain ATCC 18840,1.25 µg/mL
same,"Minimum Fungicidal Concentration, Candida albicans ATCC 26555",[3]; strain ATCC 26555,1.25 µg/mL
same,"Minimum Fungicidal Concentration, Candida albicans ATCC 44808",[3]; strain ATCC 44808,1.25 µg/mL
same,"Minimum Fungicidal Concentration, Candida albicans ATCC 90028",[3]; strain ATCC 90028,1.25 µg/mL
same,"Minimum Fungicidal Concentration, Candida albicans SLU-1",[3]; strain SLU-1,0.63 µg/mL
same,"Minimum Fungicidal Concentration, Candida glabrata ATCC 2001",[4],0.32 µg/mL
same,"Minimum Fungicidal Concentration, Candida parapsilosis ATCC 22019",[5],5.0 µg/mL
same,"Minimum Fungicidal Concentration, Cryptococcus neoformans ATCC 13690",[6],1.25 µg/mL
same,"Minimum Fungicidal Concentration, Fusarium solani ATCC 36031",[7],0.62 µg/mL
H-SKVKWLIQLFHKK-NH2 [XMP.284],"Minimum Fungicidal Concentration, Aspergillus ATCC 13073",[1]; ATCC 13073,12.50 µg/mL
same,"Minimum Fungicidal Concentration, Aspergillus niger ATCC 16404",[2]; ATCC 16404,2.5 µg/mL
same,"Minimum Fungicidal Concentration, Candida albicans ATCC 10231",[3]; SLU-1 and ATCC strains,5.0 µg/mL
same,"Minimum Fungicidal Concentration, Candida albicans ATCC 18840",[3]; SLU-1 and ATCC strains,2.5 µg/mL
same,"Minimum Fungicidal Concentration, Candida albicans ATCC 26555",[3]; SLU-1 and ATCC strains,1.25 µg/mL
same,"Minimum Fungicidal Concentration, Candida albicans ATCC 44808",[3]; SLU-1 and ATCC strains,1.25 µg/mL
same,"Minimum Fungicidal Concentration, Candida albicans ATCC 90028",[3]; SLU-1 and ATCC strains,1.25 µg/mL
same,"Minimum Fungicidal Concentration, Candida albicans SLU-1",[3]; SLU-1 and ATCC strains,2.50 µg/mL
same,"Minimum Fungicidal Concentration, Candida glabrata ATCC 2001",[4]; ATCC 2001,>10.0 µg/mL
same,"Minimum Fungicidal Concentration, Candida parapsilosis ATCC 22019",[5]; ATCC 22019,>10.0 µg/mL
same,"Minimum Fungicidal Concentration, Cryptococcus neoformans ATCC 13690",[6]; ATCC 13690,0.63 µg/mL
same,"Minimum Fungicidal Concentration, Fusarium solani ATCC 36031",[7]; ATCC 36031,0.31 µg/mL
same,"Activity of Peptides on Crytococcus Neoformans 13690, IC50",[8],0.11 µg/mL
same,protection from endotoxemia-associated mortality,"[9]; 0.5 mg/kg dose i.v., FIG. 9",significant protection
same,animals protected,[9]; 1 mg/kg dose i.v.,14 of 15
same,new HPLC peaks accumulated,[10],less than 0.5%
